Legend:
Assay in all cases: Weeding effect in post-emergence stage
Assay type in all cases: in vivo
Conditions in all cases: Dose 15 g/ha; level of fresh weight growth control rate
Echinochloa crusgalli = system: Echinochloa crusgalli
Text: (§1) The activity level criteria for plant damage (i.e., growth control rate) are as follows:
(§2) Monocotyledonous and dicotyledonous weed seeds (Descurainia sophia, Capsella bursa-pastoris, Abutilon theophrasti, Galium aparine, Stellaria media, Lithospermum arvense, rorippa indica, Alopecurus aequalis, Alopecurus japonicus, Eleusine indica, Beckmannia syzigachne, Sclerochloa dura, Conyza Canadensis, Phleum paniculatum, Veronica didyma Tenore, Bromus japonicus, Aegilops tauschii, Phalaris arundinacea, Amaranthus retroflexus, Chenopodiaceae, Commelina communis, Sonchus arvensis, Convolvulus arvensis, Cirsium setosum, Bidens tripartita L., Solanum nigrum, Acalypha australis, Digitaria sanguinalis, Echinochloa crusgalli, Setaria viridis, Setaria glauca, Leptochloa chinensis, Monochoria vaginalis, Sagittaria trifolia, Scirpus juncoides, Cyperus rotundus, Cyperus iria, Cyperus difformis, Fimbristylis, Portulaca oleracea, Xanthium sibiricum, Pharbitis nil, etc.) and major crop seeds (wheat, corn, rice, soybean, cotton, oilseed rape, millet, sorghum, potato, sesame, ricinus, etc.) were placed in plastic pots filled with soil, then covered with 0.5-2 cm of soil, allowed to grow in a good greenhouse environment. After 2 weeks of sowing, the test plants were treated in the 2-3 leaf stage. The tested compounds of the present invention were respectively dissolved in acetone, then added with Tween 80 and 1.5 liter/ha of emulsifiable concentrate of methyl oleate as synergist, diluted with a certain amount of water to obtain a solution with a certain concentration, and sprayed with a spray tower onto the plants. After the application, the plants were cultured for 3 weeks in the greenhouse, and then the experimental results of the weeding were counted. The doses of the used compounds were 500, 250, 125, 60, 30, 15, 7.5 g/ha, and the averages were obtained by repeating for three times.

Setaria viridis = system: Setaria viridis
Text: as §1
as §2, with “The doses of the used compounds were 500, 250, 125, 60, 30, 15, 7.5 g/ha, and the averages were obtained by repeating for three times.” left out

Eleusine indica = system: Eleusine indica
Text: as §1
as §2, with “The doses of the used compounds were 500, 250, 125, 60, 30, 15, 7.5 g/ha, and the averages were obtained by repeating for three times.” left out

Abutilon theophrasti = system: Abutilon theophrasti
Text: as §1
as §2, with “The doses of the used compounds were 500, 250, 125, 60, 30, 15, 7.5 g/ha, and the averages were obtained by repeating for three times.” left out

Alopecurus japonicus = system: Alopecurus japonicus
Text: as §1
as §2, with “The doses of the used compounds were 500, 250, 125, 60, 30, 15, 7.5 g/ha, and the averages were obtained by repeating for three times.” left out

Digitaria sanguinalis = system: Digitaria sanguinalis
Text: as §1
as §2, with “The doses of the used compounds were 500, 250, 125, 60, 30, 15, 7.5 g/ha, and the averages were obtained by repeating for three times.” left out

Structure (SMILES) | Weeding effect in post-emergence stage, Echinochloa crusgalli (Echinochloa crusgalli) | Weeding effect in post-emergence stage, Setaria viridis (Setaria viridis) | Weeding effect in post-emergence stage, Eleusine indica (Eleusine indica) | Weeding effect in post-emergence stage, Abutilon theophrasti (Abutilon theophrasti) | Weeding effect in post-emergence stage, Alopecurus japonicus (Alopecurus japonicus) | Weeding effect in post-emergence stage, Digitaria sanguinalis (Digitaria sanguinalis)
CCCOC(=O)C(C)O/N=C/c1cc(-n2c(=O)n(C)c(=S)n(C)c2=O)c(F)cc1Cl (racemic) [Compound 4] | 5 (Level 5: growth control rate is above 85%) | 5 (Level 5: growth control rate is above 85%) | 5 (Level 5: growth control rate is above 85%) | 5 (Level 5: growth control rate is above 85%) | 5 (Level 5: growth control rate is above 85%) | 5 (Level 5: growth control rate is above 85%)
CC(C)OC(=O)C(C)O/N=C/c1cc(-n2c(=O)n(C)c(=S)n(C)c2=O)c(F)cc1Cl (racemic) [Compound 5] | 5 (Level 5: growth control rate is above 85%) | 5 (Level 5: growth control rate is above 85%) | 5 (Level 5: growth control rate is above 85%) | 5 (Level 5: growth control rate is above 85%) | 5 (Level 5: growth control rate is above 85%) | 5 (Level 5: growth control rate is above 85%)
C=CCCOC(=O)C(C)O/N=C/c1cc(-n2c(=O)n(C)c(=S)n(C)c2=O)c(F)cc1Cl (racemic) [Compound 6] | 5 (Level 5: growth control rate is above 85%) | 5 (Level 5: growth control rate is above 85%) | 5 (Level 5: growth control rate is above 85%) | 5 (Level 5: growth control rate is above 85%) | 5 (Level 5: growth control rate is above 85%) | 5 (Level 5: growth control rate is above 85%)
CC(O/N=C/c1cc(-n2c(=O)n(C)c(=S)n(C)c2=O)c(F)cc1Cl)C(=O)OCC1CC1 (racemic) [Compound 9] | 5 (Level 5: growth control rate is above 85%) | 5 (Level 5: growth control rate is above 85%) | 5 (Level 5: growth control rate is above 85%) | 5 (Level 5: growth control rate is above 85%) | 5 (Level 5: growth control rate is above 85%) | 5 (Level 5: growth control rate is above 85%)
CC(O/N=C/c1cc(-n2c(=O)n(C)c(=S)n(C)c2=O)c(F)cc1Cl)C(=O)OCCF (racemic) [Compound 10] | 5 (Level 5: growth control rate is above 85%) | 5 (Level 5: growth control rate is above 85%) | 5 (Level 5: growth control rate is above 85%) | 5 (Level 5: growth control rate is above 85%) | 5 (Level 5: growth control rate is above 85%) | 5 (Level 5: growth control rate is above 85%)
CC(O/N=C/c1cc(-n2c(=O)n(C)c(=S)n(C)c2=O)c(F)cc1Cl)C(=O)OCCCF (racemic) [Compound 11] | 5 (Level 5: growth control rate is above 85%) | 5 (Level 5: growth control rate is above 85%) | 5 (Level 5: growth control rate is above 85%) | 5 (Level 5: growth control rate is above 85%) | 5 (Level 5: growth control rate is above 85%) | 5 (Level 5: growth control rate is above 85%)
CC(O/N=C/c1cc(-n2c(=O)n(C)c(=S)n(C)c2=O)c(F)cc1Cl)C(=O)OCCCC(F)(F)F (racemic) [Compound 12] | 5 (Level 5: growth control rate is above 85%) | 5 (Level 5: growth control rate is above 85%) | 5 (Level 5: growth control rate is above 85%) | 5 (Level 5: growth control rate is above 85%) | 5 (Level 5: growth control rate is above 85%) | 5 (Level 5: growth control rate is above 85%)
COCCOC(=O)C(C)O/N=C/c1cc(-n2c(=O)n(C)c(=S)n(C)c2=O)c(F)cc1Cl (racemic) [Compound 14] | 5 (Level 5: growth control rate is above 85%) | 5 (Level 5: growth control rate is above 85%) | 5 (Level 5: growth control rate is above 85%) | 5 (Level 5: growth control rate is above 85%) | 4 (Level 4: growth control rate is greater than or equal to 60% and less than 85%) | 5 (Level 5: growth control rate is above 85%)
CCOC(=O)COC(=O)C(C)O/N=C/c1cc(-n2c(=O)n(C)c(=S)n(C)c2=O)c(F)cc1Cl (racemic) [Compound 17] | 5 (Level 5: growth control rate is above 85%) | 5 (Level 5: growth control rate is above 85%) | 5 (Level 5: growth control rate is above 85%) | 5 (Level 5: growth control rate is above 85%) | 5 (Level 5: growth control rate is above 85%) | 5 (Level 5: growth control rate is above 85%)
CCOC(=O)C(C)O/N=C/c1cc(-n2c(=O)n(C)c(=S)n(C)c2=O)c(F)cc1C(F)(F)F (racemic) [Compound 86] | 4 (Level 4: growth control rate is greater than or equal to 60% and less than 85%) | 4 (Level 4: growth control rate is greater than or equal to 60% and less than 85%) | 5 (Level 5: growth control rate is above 85%) | 5 (Level 5: growth control rate is above 85%) | 3 (Level 3: growth control rate is greater than or equal to 40% and less than 60%) | 3 (Level 3: growth control rate is greater than or equal to 40% and less than 60%)
COC(=O)C(C)O/N=C/c1cc(-n2c(=O)n(C)c(=S)n(C)c2=O)c(F)cc1C#N (racemic) [Compound 87] | 5 (Level 5: growth control rate is above 85%) | 5 (Level 5: growth control rate is above 85%) | 5 (Level 5: growth control rate is above 85%) | 5 (Level 5: growth control rate is above 85%) | 5 (Level 5: growth control rate is above 85%) | 5 (Level 5: growth control rate is above 85%)
CCOC(=O)C(C)O/N=C/c1cc(-n2c(=O)n(C)c(=S)n(C)c2=O)c(F)cc1C#N (racemic) [Compound 88] | 5 (Level 5: growth control rate is above 85%) | 5 (Level 5: growth control rate is above 85%) | 5 (Level 5: growth control rate is above 85%) | 5 (Level 5: growth control rate is above 85%) | 5 (Level 5: growth control rate is above 85%) | 5 (Level 5: growth control rate is above 85%)
